Experimental data: patent US20140357512A1, “HISTONE DEACETYLASE (HDAC) BIOMARKERS IN MULTIPLE MYELOMA” (priority 2013, published 2014)

System: human myeloma cell line MM.1S
Test: SILAC acetylated-lysine peptide profiling, HDAC inhibitor vs DMSO (light/heavy ratio)
Format: cell-based
Source text: An embodiment of the invention comprises utilizing the SILAC method in order to quantitate changes in protein expression between two or more populations of cells. The SILAC method is a technique based on mass spectrometry that detects differences in protein abundance among samples using non-radioactive isotopic labeling. The SILAC method is known in the art, and described in detail in Ong et al., “Stable Isotope Labeling by Amino Acids in Cell Culture, SILAC, as a Simple and Accurate Approach to Expression Proteomics”, Molecular & Cellular Proteomics, vol. 1, pp. 376-386 (2002), which is incorporated herein by reference in its entirety.
Briefly, the SILAC method involves growing two populations of cells in cell culture. The first population of cells is grown in growth media containing normal amino acids (“normal media”). The second population of cells is grown in media lacking a standard essential amino acid (such as lysine), but is then supplemented with a non-radioactive, isotopically labeled form of that essential amino acid (such as lysine labeled with ^13C atoms, rather than normal ^12C atoms), which is called “heavy media”. When the two populations of cells are each growing in the medium, they incorporate the amino acids into all of their proteins. The growth of cells maintained in the heavy media is no different from that in normal media. All peptides containing the heavy amino acids are heavier than their normal counterparts. The cells from each of the two populations of cells are lysed. The lysates from each of the two cell populations are then combined. The combined cell lysates are then analyzed by mass spectrometry. Pairs of chemically identical peptides of different stable isotope composition can be differentiated in a mass spectrometer due to their difference in mass. The ratio of peak intensities in the mass spectrum for such peptide pairs reflects the abundance ratio for the two proteins.
This example describes SILAC studies that were performed to compare the effects of three different HDAC inhibitors (Compound A, Compound B, and tubastatin A) to a control on a human multiple myeloma cell line. The HDAC inhibitors were also compared amongst themselves to determine differences in their effects.
A human myeloma cell line MM.1S was grown using either ^12C (light) or ^13C (heavy) lysine containing culture medium. The “heavy” cells were treated with DMSO as the control, and the “light” cells were treated with a single HDAC inhibitor at 37° C. for 6 hours. The heavy and light cells were lysed, and the lysates were mixed in 1:1 ratio and digested with the protease trypsin. The acetylated lysine containing peptides (due to the action of the HDAC inhibitor) in the digested peptide pool were captured by a non-specific anti-acetylated lysine antibody cocktail (the antibodies identify both light and heavy acetylated peptides), and subjected to mass spectrometry analysis in order to identify thousands of individual peptides.
Thousands of peptides were identified in pairs (^12C and ^13C) due to their known mass differences. The amino acid sequence and quantitative ratio (Light/Heavy) of a given peptide in two differentially treated cell lysates were then determined and annotated with their possible protein (gene) sources.
As stated above, three HDAC inhibitors (Compound A, Compound B, and Tubastatin A) were used. Thus, the SILAC method was performed three times, with a different HDAC inhibitor compared to a control each time. Accordingly, there are three pairs of quantitative data in the table below, i.e., Compound A:DMSO, Compound B:DMSO, and Tubastatin A:DMSO. A cut-off of 1.30 fold of change (increase or decrease) was then used to determine “changed” or “+” in the table, and any peptides with a fold of change less than 1.3 fold were determined to be “unchanged” or “0” in the table. Those peptides that were not identified were marked as “NA” in the table. […]

For `CN1CCc2c(c3ccccc3n2Cc2ccc(C(=O)NO)cc2)C1` [Tub A], the “light to heavy ratio (L/H ratio) of acetylated peptide AVDCLLDSK(ac)WAK (SEQ ID NO: 518)” value (Translocation protein SEC62 [60], gene SEC62, inhibitor:DMSO) was 0.00 log 2, the “light to heavy ratio (L/H ratio) of acetylated peptide VK(ac)FIHDQTSPNPK (SEQ ID NO: 562)” value (Tricarboxylate transport protein mitochondrial [149], gene SLC25A1, inhibitor:DMSO) was 0.00 log 2 and the “light to heavy ratio (L/H ratio), log 2 scale, acetylated peptide FGAPQK(ac)DVK (SEQ ID NO: 788)” value (Trifunctional enzyme subunit alpha mitochondrial [359], gene HADHA, drug:DMSO) was 0.00. The “light to heavy ratio (L/H ratio), log 2 scale, acetylated peptide ILQEGVDPK(ac)K (SEQ ID NO: 789)” value (Trifunctional enzyme subunit alpha mitochondrial [569], gene HADHA, drug:DMSO) was 0.00, the “light to heavy ratio (L/H ratio) of acetylated peptide VPGK(ac)DTVTK (SEQ ID NO: 308)” value (Trifunctional enzyme subunit beta mitochondrial [272], HADHB, drug:DMSO) was 0.40 log 2 and the “L/H ratio of acetylated peptide VVVTK(ac)YCDPDSYHR (SEQ ID NO: 114)” value (U2AF2 [462], log 2 scale, drug vs DMSO) was −0.43. For the same compound, the “L/H ratio of acetylated peptide” value (VAILK(ac)ANLR (SEQ ID NO: 488), Transitional endoplasmic reticulum ATPase [658], VCP) was 0.00 log 2, the “light to heavy ratio (L/H ratio) of acetylated peptide, log 2 scale” value (VALEIFQHSK(ac)YK (SEQ ID NO: 183), Isoform 2 of 39S ribosomal protein L39 mitochondrial [234], MRPL39) was 0.64 and the “L/H ratio of acetylated peptide FGIAAK(ac)YQIDPDACFSAK (SEQ ID NO: 115)” value (VDAC1 [224], log 2 scale, drug vs DMSO) was 0.47. For the same compound, the “L/H ratio of acetylated peptide YK(ac)WCEYGLTFTEK (SEQ ID NO: 116)” value (VDAC2 [63], log 2 scale, drug vs DMSO) was 0.59, the “L/H ratio of acetylated peptide (ac)CNTPTYCDLGK(ac)AAK (SEQ ID NO: 6)” value (VDAC3 [12], log 2 scale, drug vs DMSO) was 0.52 and the “L/H ratio of acetylated peptide YK(ac)VCNYGLTFTQK (SEQ ID NO: 117)” value (VDAC3 [63], log 2 scale, drug vs DMSO) was 0.40. For the same compound, the “L/H ratio of acetylated peptide” value (VIIVVK(ac)DGPGFYTTR (SEQ ID NO: 401), Trifunctional enzyme subunit alpha mitochondrial [540], HADHA) was 0.00 log 2, the “L/H ratio of acetylated peptide TNEK(ac)VELQELNDR (SEQ ID NO: 122)” value (VIM [104], log 2 scale, drug vs DMSO) was −0.59 and the “L/H ratio of acetylated peptide FANYIDK(ac)VR (SEQ ID NO: 118)” value (VIM [120], log 2 scale, drug vs DMSO) was −0.65. The “L/H ratio of acetylated peptide ILLAELEQLK(ac)GQGK (SEQ ID NO: 119)” value (VIM [139], log 2 scale, drug vs DMSO) was −0.82, the “L/H ratio of acetylated peptide SK(ac)FADLSEAANR (SEQ ID NO: 121)” value (VIM [294], log 2 scale, drug vs DMSO) was −0.60 and the “L/H ratio of acetylated peptide LQDEIQNMK(ac)EEMAR (SEQ ID NO: 120)” value (VIM [373], log 2 scale, drug vs DMSO) was −0.72. For the same compound, the “light to heavy ratio (L/H ratio) of acetylated peptide, log 2 scale” value (VLK(ac)GNTAEGCVHETQEK (SEQ ID NO: 186), Isoform 1 of Myb-binding protein 1A [935], MYBBP1A) was −0.43, the “light to heavy ratio (L/H ratio) of acetylated peptide, log 2 scale” value (VLPSIVNEVLK(ac)SVVAK (SEQ ID NO: 195), Prohibitin-2 [142], PHB2) was 1.00 and the “light to heavy ratio (L/H ratio) of acetylated peptide, log 2 scale” value (VNLQNNPGAMEHFHMK(ac)LFR (SEQ ID NO: 136), B-cell receptor-associated protein 31 [95], BCAP31) was 0.52. The “light to heavy ratio (L/H ratio) of acetylated peptide, log 2 scale” value (VTEK(ac)IPVR (SEQ ID NO: 168), Isoform Short of Heterogeneous nuclear ribonucleoprotein U [324], HNRNPU) was −0.76, the “light to heavy ratio (L/H ratio) of acetylated peptide, log 2 scale” value (VVVGK(ac)TFDSIVMDPK (SEQ ID NO: 193), Protein disulfide-isomerase A4 [533], PDIA4) was −0.80 and the “light to heavy ratio (L/H ratio) of acetylated peptide DLQQYQSQAK(ac)QLFR (SEQ ID NO: 321)” value (Vesicle-trafficking protein SEC22b [38], SEC22B, drug:DMSO) was 0.46 log 2. The “light to heavy ratio (L/H ratio) of acetylated peptide TLLIK(ac)TVETR (SEQ ID NO: 269)” value (Vimentin [445], VIM, drug:DMSO) was −0.54 log 2, the “light to heavy ratio (L/H ratio) of acetylated peptide, log 2 scale” value (WVFK(ac)EEGVLR (SEQ ID NO: 150), Dolichyl-diphosphooligosaccharide--protein glycosyltransferase 48 kDa subunit [301], DDOST) was −0.53 and the “light to heavy ratio (L/H ratio) of acetylated peptide KQELLEALTK(ac)HFQD (SEQ ID NO: 355)” value (X-ray repair cross-complementing protein 6 [605], XRCC6, drug:DMSO) was 0.00 log 2. The “L/H ratio of acetylated peptide ALQEK(ac)VEIK (SEQ ID NO: 123)” value (XRCC5 [665], log 2 scale, drug vs DMSO) was −0.46, the “light to heavy ratio (L/H ratio) of acetylated peptide, log 2 scale” value (YGPFVADFADK(ac)LNEQK (SEQ ID NO: 134), ATP synthase subunit b mitochondrial [126], ATP5F1) was −0.45 and the “light to heavy ratio (L/H ratio) of acetylated peptide, log 2 scale” value (YIAK(ac)QESVEER (SEQ ID NO: 140), Isoform 3 of Coiled-coil domain-containing protein 144A [754], CCDC144A) was −0.42. For the same compound, the “light to heavy ratio (L/H ratio) of acetylated peptide, log 2 scale” value (YLENGK(ac)ETLQR (SEQ ID NO: 163), Putative HLA class I histocompatibility antigen alpha chain H [200], HLA-H) was −0.46, the “light to heavy ratio (L/H ratio) of acetylated peptide, log 2 scale” value (YLLYGEK(ac)GTGK (SEQ ID NO: 147), 28S ribosomal protein S29 mitochondrial [130], DAP3) was 0.46 and the “light to heavy ratio (L/H ratio) of acetylated peptide YFLDK(ac)TLTSR (SEQ ID NO: 293)” value ([3-methyl-2-oxobutanoate dehydrogenase [lipoamide]] kinase mitochondrial [192], BCKDK, drug:DMSO) was 0.50 log 2. The “light to heavy ratio (L/H ratio) of acetylated peptide, log 2 scale” value ([…](ac)PER (SEQ ID NO: 219), cDNA FLJ59739 highly similar to Protein transport protein Sec61 subunit alpha isoform 1 [27], SEC61A1) was 0.49, the “light to heavy ratio (L/H ratio) of acetylated peptide SAYFAEK(ac)LYK (SEQ ID NO: 292)” value (annexin A4 [255], ANXA4, drug:DMSO) was 0.62 log 2 and the “light to heavy ratio (L/H ratio) of acetylated peptide ILMSK(ac)PVLSGGTGR (SEQ ID NO: 291)” value (cDNA FLJ55380 highly similar to Protein kinase C-binding protein 1 [440], ZMYND8, drug:DMSO) was 0.65 log 2. The “light to heavy ratio (L/H ratio) of acetylated peptide YDGK(ac)WEVEEMK (SEQ ID NO: 274)” value (cDNA FLJ55574 highly similar to Calnexin [138], CANX, drug:DMSO) was −0.49 log 2, the “light to heavy ratio (L/H ratio) of acetylated peptide LNK(ac)PFLFDTK (SEQ ID NO: 327)” value (cDNA FLJ55574 highly similar to Calnexin [172], CANX, drug:DMSO) was 0.00 log 2 and the “light to heavy ratio (L/H ratio) of acetylated peptide LLASK(ac)SLLNR (SEQ ID NO: 322)” value (cDNA FLJ56303 highly similar to Translocon-associated protein subunit beta [46], SSR2, drug:DMSO) was −0.59 log 2. The “light to heavy ratio (L/H ratio) of acetylated peptide IINEVSK(ac)PLAHHIPVEK (SEQ ID NO: 341)” value (cDNA FLJ77177 highly similar to Homo sapiens arginine-rich mutated in early stage tumors (ARMET) mRNA [97], MANF, drug:DMSO) was 0.00 log 2, the “light to heavy ratio (L/H ratio) of acetylated peptide TNVPVK(ac)LFAR (SEQ ID NO: 348)” value (cDNA FLJ77422 highly similar to Homo sapiens RNA binding protein autoantigenic (hnRNP-associated with lethal yellow homolog (mouse)) transcript variant 1 mRNA (Fragment) [165], RALY, drug:DMSO) was 0.00 log 2 and the “light to heavy ratio (L/H ratio) of acetylated peptide GSK(ac)FYGPAGPYGIFAGR (SEQ ID NO: 265)” value (membrane-associated progesterone receptor component 2 [159], PGRMC2, drug:DMSO) was −0.45 log 2. The “light to heavy ratio (L/H ratio) of acetylated peptide SK(ac)SDPIMLLK (SEQ ID NO: 255)” value (pyruvate dehydrogenase E1 component subunit alpha somatic form mitochondrial isoform 2 precursor [351], PDHA1, drug:DMSO) was 0.52 log 2, the “light to heavy ratio (L/H ratio) of acetylated peptide LTSLNVK(ac)YNNDK (SEQ ID NO: 590)” value (regulator of differentiation 1 isoform 2 [236], gene ROD1, inhibitor:DMSO) was 0.00 log 2 and the “light to heavy ratio (L/H ratio) of acetylated peptide GWLK(ac)SNVSDAVAQSTR (SEQ ID NO: 278)” value (triosephosphate isomerase isoform 2 [231], TPI1, TPI1P1, drug:DMSO) was −0.41 log 2.
